Laboratory results: the kinase profiling compilation of Christmann-Franck et al. (2016)

Experiments:
Experiment in all cases: radiometric filter-binding kinase assay
MAP3K9 (human) = MAP3K9 (human) (UniProt P80192)
IRAK4 (human) = IRAK4 (human) (UniProt Q9NWZ3)
CDK2 CCNA2 (human) = CDK2 CCNA2 (human) (UniProt P20248+P24941)
PRKCZ (human) = PRKCZ (human) (UniProt Q05513)
CSNK2A1 (human) = CSNK2A1 (human) (UniProt P68400)
HIPK2 (human) = HIPK2 (human) (UniProt Q9H2X6)
IKBKB (human) = IKBKB (human) (UniProt O14920)
MAPK13 (human) = MAPK13 (human) (UniProt O15264)
MAPKAPK3 (human) = MAPKAPK3 (human) (UniProt Q16644)
LCK (mouse) = conditions: accession and sequence are those of the human protein
IKBKE (human) = IKBKE (human) (UniProt Q14164)
MAPK12 (human) = MAPK12 (human) (UniProt P53778)
AURKA (human) = AURKA (human) (UniProt O14965)
CAMKK2 (human) = CAMKK2 (human) (UniProt Q96RR4)
MARK3 (human) = MARK3 (human) (UniProt P27448)
MARK2 (human) = MARK2 (human) (UniProt Q7KZI7)
EPHB4 (human) = EPHB4 (human) (UniProt P54760)
PIM2 (human) = PIM2 (human) (UniProt Q9P1W9)
NEK6 (human) = NEK6 (human) (UniProt Q9HC98)
CHEK1 (human) = CHEK1 (human) (UniProt O14757)
MAPK3 (human) = MAPK3 (human) (UniProt P27361)
FLT1 (human) = FLT1 (human) (UniProt P17948)
MYLK (human) = MYLK (human) (UniProt Q15746)
[1] = biological target: STK11 CAB39 STRADA (human) (UniProt Q9Y376+Q7RTN6+Q15831)
GSK3B (human) = GSK3B (human) (UniProt P49841)
EPHB1 (human) = EPHB1 (human) (UniProt P54762)
MAPK9 (human) = MAPK9 (human) (UniProt P45984)
PRKCA (human) = PRKCA (human) (UniProt P17252)
STK3 (human) = STK3 (human) (UniProt Q13188)
GCK (human) = GCK (human) (UniProt Q12851)
MAPKAPK2 (human) = MAPKAPK2 (human) (UniProt P49137)
RPS6KA1 KD1 KD2 (human) = RPS6KA1 KD1 KD2 (human) (UniProt Q15418)
EEF2K (human) = EEF2K (human) (UniProt O00418)
EPHA4 (human) = EPHA4 (human) (UniProt P54764)
[2] = test system: SGK1 (human), O00141 [S422D]
Chain of SGK1 (human), O00141 [S422D] (O00141 whole entry S422D, looked up): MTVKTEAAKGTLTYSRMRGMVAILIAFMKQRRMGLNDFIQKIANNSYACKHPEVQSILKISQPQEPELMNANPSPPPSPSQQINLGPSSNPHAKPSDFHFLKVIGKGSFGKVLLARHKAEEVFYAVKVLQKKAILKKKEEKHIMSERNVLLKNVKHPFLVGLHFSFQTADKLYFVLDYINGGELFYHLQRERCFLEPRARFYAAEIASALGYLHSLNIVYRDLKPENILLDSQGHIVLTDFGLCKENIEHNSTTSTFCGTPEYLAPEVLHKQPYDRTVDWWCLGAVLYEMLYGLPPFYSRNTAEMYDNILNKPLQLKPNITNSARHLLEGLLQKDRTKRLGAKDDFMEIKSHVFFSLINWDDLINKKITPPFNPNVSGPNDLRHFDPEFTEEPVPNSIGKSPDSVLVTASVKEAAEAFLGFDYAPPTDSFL

Chain of STK3 (human) (Q13188 whole entry, looked up): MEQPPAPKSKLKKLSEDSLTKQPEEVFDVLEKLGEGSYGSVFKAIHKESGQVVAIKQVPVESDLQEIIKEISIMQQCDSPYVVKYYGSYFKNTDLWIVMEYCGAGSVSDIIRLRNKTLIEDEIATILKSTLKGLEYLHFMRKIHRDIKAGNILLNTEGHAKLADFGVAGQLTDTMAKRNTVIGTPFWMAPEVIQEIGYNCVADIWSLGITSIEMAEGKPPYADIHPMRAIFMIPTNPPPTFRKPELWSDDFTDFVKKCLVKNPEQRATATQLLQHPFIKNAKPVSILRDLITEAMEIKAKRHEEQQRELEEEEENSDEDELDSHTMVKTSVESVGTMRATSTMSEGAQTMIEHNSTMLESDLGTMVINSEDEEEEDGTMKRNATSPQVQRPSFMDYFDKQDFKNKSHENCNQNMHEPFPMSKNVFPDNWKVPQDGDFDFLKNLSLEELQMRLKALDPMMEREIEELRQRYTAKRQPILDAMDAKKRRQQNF
Chain of MAPK9 (human) (P45984 whole entry, looked up): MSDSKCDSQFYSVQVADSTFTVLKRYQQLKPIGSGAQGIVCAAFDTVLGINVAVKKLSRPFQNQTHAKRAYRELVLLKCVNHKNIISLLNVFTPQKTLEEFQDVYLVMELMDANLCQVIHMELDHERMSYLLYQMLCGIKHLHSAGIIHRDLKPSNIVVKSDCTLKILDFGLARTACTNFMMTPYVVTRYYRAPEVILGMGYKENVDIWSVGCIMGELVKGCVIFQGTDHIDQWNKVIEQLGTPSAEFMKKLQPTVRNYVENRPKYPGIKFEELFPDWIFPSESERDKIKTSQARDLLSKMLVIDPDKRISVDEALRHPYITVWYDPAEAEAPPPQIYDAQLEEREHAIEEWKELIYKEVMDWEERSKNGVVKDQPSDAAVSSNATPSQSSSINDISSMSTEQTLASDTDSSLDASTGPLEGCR
Chain of CAMKK2 (human) (Q96RR4 whole entry, looked up): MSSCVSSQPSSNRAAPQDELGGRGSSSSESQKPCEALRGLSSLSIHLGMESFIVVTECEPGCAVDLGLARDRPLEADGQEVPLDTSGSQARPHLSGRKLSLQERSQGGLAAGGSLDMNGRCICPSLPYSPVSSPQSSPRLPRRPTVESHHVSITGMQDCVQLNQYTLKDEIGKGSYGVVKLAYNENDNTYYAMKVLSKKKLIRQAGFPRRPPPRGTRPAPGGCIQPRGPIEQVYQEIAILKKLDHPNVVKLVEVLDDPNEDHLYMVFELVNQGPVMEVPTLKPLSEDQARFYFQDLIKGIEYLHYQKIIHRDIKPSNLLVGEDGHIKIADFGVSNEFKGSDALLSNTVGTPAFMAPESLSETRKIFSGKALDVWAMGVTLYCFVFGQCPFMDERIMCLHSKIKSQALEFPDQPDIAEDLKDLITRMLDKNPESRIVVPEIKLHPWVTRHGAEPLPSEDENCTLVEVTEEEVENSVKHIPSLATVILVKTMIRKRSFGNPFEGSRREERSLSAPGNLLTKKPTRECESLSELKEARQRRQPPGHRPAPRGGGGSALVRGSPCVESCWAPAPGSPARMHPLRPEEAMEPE
Chain of GSK3B (human) (P49841 whole entry, looked up): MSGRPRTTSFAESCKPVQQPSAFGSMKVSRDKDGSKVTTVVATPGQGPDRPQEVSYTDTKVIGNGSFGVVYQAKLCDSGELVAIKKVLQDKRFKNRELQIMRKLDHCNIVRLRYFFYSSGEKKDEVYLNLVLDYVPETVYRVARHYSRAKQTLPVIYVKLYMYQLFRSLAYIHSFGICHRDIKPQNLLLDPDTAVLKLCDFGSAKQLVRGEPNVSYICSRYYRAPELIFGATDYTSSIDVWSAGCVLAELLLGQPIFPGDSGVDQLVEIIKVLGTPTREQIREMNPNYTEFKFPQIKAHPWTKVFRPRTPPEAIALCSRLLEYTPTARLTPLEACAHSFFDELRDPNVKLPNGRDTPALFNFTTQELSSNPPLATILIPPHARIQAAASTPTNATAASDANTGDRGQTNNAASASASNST
Chain of MAPKAPK3 (human) (Q16644 whole entry, looked up): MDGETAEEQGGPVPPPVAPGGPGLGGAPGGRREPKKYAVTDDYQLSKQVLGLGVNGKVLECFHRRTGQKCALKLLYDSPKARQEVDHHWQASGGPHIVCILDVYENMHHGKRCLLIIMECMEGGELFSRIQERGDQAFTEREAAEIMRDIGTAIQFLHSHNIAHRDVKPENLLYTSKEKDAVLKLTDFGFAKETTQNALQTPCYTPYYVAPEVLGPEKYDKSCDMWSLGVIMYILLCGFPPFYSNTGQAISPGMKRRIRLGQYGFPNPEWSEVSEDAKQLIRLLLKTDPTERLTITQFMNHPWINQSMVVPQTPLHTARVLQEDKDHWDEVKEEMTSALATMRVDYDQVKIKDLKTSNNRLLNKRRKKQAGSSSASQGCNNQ
Chain of STK11 CAB39 STRADA (human) (Q15831 whole entry, looked up): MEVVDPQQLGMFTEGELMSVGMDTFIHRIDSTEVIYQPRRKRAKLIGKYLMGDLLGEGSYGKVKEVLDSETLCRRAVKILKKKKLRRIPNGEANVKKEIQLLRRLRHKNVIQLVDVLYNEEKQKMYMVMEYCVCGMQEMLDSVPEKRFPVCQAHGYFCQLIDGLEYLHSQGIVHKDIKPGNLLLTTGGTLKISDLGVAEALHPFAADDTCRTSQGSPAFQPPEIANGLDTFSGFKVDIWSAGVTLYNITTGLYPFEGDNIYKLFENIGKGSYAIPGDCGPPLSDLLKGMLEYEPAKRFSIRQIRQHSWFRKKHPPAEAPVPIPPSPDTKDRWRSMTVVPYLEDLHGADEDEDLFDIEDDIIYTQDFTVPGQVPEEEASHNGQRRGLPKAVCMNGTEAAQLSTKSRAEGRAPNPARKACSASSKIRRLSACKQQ
Chain of STK11 CAB39 STRADA (human) (Q7RTN6 whole entry, looked up): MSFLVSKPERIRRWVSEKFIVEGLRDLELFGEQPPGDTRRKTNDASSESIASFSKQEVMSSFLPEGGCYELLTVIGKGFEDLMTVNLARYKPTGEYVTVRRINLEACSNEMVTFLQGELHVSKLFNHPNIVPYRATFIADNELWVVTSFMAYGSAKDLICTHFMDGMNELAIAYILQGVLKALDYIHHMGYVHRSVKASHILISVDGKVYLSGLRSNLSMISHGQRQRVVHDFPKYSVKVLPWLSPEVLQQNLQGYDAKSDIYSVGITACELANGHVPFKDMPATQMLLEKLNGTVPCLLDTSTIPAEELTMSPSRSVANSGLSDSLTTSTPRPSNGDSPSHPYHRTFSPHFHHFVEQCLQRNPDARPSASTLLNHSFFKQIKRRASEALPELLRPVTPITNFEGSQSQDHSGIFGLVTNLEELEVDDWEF
Chain of STK11 CAB39 STRADA (human) (Q9Y376 whole entry, looked up): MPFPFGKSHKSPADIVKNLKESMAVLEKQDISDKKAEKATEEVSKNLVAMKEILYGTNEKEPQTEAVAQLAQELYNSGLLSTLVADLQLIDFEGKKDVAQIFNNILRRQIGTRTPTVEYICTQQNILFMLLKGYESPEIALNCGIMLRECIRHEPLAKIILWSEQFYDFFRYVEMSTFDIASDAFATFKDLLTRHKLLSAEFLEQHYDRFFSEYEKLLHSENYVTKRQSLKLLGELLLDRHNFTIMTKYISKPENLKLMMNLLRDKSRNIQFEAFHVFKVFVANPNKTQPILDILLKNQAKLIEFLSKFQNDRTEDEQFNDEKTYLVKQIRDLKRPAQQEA
Chain of CHEK1 (human) (O14757 whole entry, looked up): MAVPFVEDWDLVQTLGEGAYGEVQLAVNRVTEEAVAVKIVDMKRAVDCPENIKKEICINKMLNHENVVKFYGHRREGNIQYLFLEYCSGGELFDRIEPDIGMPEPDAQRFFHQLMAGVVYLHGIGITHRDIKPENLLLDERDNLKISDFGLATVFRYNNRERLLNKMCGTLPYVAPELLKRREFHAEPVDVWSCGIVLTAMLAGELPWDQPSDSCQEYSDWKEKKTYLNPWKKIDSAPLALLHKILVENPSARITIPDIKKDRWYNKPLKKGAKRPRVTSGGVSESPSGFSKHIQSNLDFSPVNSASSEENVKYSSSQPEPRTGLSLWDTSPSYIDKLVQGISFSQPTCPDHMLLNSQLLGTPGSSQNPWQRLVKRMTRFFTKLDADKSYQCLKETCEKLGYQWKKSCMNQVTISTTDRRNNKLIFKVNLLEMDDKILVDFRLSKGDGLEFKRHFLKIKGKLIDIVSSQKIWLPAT
Chain of CSNK2A1 (human) (P68400 whole entry, looked up): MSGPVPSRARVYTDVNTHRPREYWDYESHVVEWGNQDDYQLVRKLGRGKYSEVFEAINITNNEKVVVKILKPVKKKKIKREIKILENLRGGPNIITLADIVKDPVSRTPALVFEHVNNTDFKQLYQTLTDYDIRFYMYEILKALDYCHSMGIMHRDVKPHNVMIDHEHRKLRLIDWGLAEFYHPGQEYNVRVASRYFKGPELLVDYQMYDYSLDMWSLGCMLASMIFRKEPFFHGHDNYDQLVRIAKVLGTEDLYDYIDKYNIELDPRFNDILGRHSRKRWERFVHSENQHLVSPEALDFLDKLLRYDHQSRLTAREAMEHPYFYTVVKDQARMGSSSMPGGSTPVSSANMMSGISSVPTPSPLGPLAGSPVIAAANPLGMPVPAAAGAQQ

What does the source list for `O=C1c2ccccc2-c2n[nH]c3cccc1c23`?
residual activity (MAP3K9 (human); compound 1.0 µM): 11%; residual activity (MAP3K9 (human); compound 10.0 µM): 6%; residual activity (IRAK4 (human); compound 1.0 µM): 33%; residual activity (IRAK4 (human); compound 10.0 µM): 8%; residual activity (CDK2 CCNA2 (human); compound 1.0 µM): 50%; residual activity (CDK2 CCNA2 (human); compound 10.0 µM): 14%; residual activity (PRKCZ (human); compound 1.0 µM): 93%; residual activity (PRKCZ (human); compound 10.0 µM): 89%; residual activity (CSNK2A1 (human); compound 1.0 µM): 81%; residual activity (CSNK2A1 (human); compound 10.0 µM): 28%; residual activity (HIPK2 (human); compound 1.0 µM): 31%; residual activity (HIPK2 (human); compound 10.0 µM): 11%; residual activity (IKBKB (human); compound 1.0 µM): 75%; residual activity (IKBKB (human); compound 10.0 µM): 38%; residual activity (MAPK13 (human); compound 1.0 µM): 98%; residual activity (MAPK13 (human); compound 10.0 µM): 26%; residual activity (MAPKAPK3 (human); compound 1.0 µM): 113%; residual activity (MAPKAPK3 (human); compound 10.0 µM): 66%; residual activity (LCK (mouse); compound 1.0 µM): 95%; residual activity (LCK (mouse); compound 10.0 µM): 90%; residual activity (IKBKE (human); compound 1.0 µM): 79%; residual activity (IKBKE (human); compound 10.0 µM): 39%; residual activity (MAPK12 (human); compound 1.0 µM): 98%; residual activity (MAPK12 (human); compound 10.0 µM): 77%; residual activity (AURKA (human); compound 1.0 µM): 40%; residual activity (AURKA (human); compound 10.0 µM): 6%; residual activity (CAMKK2 (human); compound 1.0 µM): 45%; residual activity (CAMKK2 (human); compound 10.0 µM): 22%; residual activity (MARK3 (human); compound 1.0 µM): 41%; residual activity (MARK3 (human); compound 10.0 µM): 14%; residual activity (MARK2 (human); compound 1.0 µM): 62%; residual activity (MARK2 (human); compound 10.0 µM): 43%; residual activity (EPHB4 (human); compound 1.0 µM): 113%; residual activity (EPHB4 (human); compound 10.0 µM): 78%; residual activity (PIM2 (human); compound 1.0 µM): 78%; residual activity (PIM2 (human); compound 10.0 µM): 29%; residual activity (NEK6 (human); compound 1.0 µM): 95%; residual activity (NEK6 (human); compound 10.0 µM): 66%; residual activity (CHEK1 (human); compound 1.0 µM): 59%; residual activity (CHEK1 (human); compound 10.0 µM): 26%; residual activity (MAPK3 (human); compound 1.0 µM): 94%; residual activity (MAPK3 (human); compound 10.0 µM): 45%; residual activity (FLT1 (human); compound 1.0 µM): 29%; residual activity (FLT1 (human); compound 10.0 µM): 14%; residual activity (MYLK (human); compound 1.0 µM): 26%; residual activity (MYLK (human); compound 10.0 µM): 11%; residual activity ([1]; compound 1.0 µM): 40%; residual activity ([1]; compound 10.0 µM): 18%; residual activity (GSK3B (human); compound 1.0 µM): 87%; residual activity (GSK3B (human); compound 10.0 µM): 51%; residual activity (EPHB1 (human); compound 1.0 µM): 108%; residual activity (EPHB1 (human); compound 10.0 µM): 70%; residual activity (MAPK9 (human); compound 1.0 µM): 50%; residual activity (MAPK9 (human); compound 10.0 µM): 15%; residual activity (PRKCA (human); compound 1.0 µM): 78%; residual activity (PRKCA (human); compound 10.0 µM): 27%; residual activity (STK3 (human); compound 1.0 µM): 40%; residual activity (STK3 (human); compound 10.0 µM): 29%; residual activity (GCK (human); compound 1.0 µM): 13%; residual activity (GCK (human); compound 10.0 µM): 4%; residual activity (MAPKAPK2 (human); compound 1.0 µM): 95%; residual activity (MAPKAPK2 (human); compound 10.0 µM): 77%; residual activity (RPS6KA1 KD1 KD2 (human); compound 1.0 µM): 66%; residual activity (RPS6KA1 KD1 KD2 (human); compound 10.0 µM): 26%; residual activity (EEF2K (human); compound 1.0 µM): 94%; residual activity (EEF2K (human); compound 10.0 µM): 96%; residual activity (EPHA4 (human); compound 1.0 µM): 84%; residual activity (EPHA4 (human); compound 10.0 µM): 66%; residual activity ([2]; compound 1.0 µM): 72%; residual activity ([2]; compound 10.0 µM): 30%

How did the residual activity (MAP3K9 (human); compound 10.0 µM) turn out when `Cc1nc(N)sc1-c1csc(Nc2cccnc2)n1` was run?
Its residual activity is 95%.

And the residual activity (MAP3K9 (human); compound 100.0 µM)?
The residual activity was 9%.

What about the residual activity (IRAK4 (human); compound 10.0 µM) of the same molecule?
The residual activity was 74%.

What about the residual activity (CDK2 CCNA2 (human); compound 10.0 µM) of the same molecule?
The residual activity was 63%.

What about the residual activity (PRKCZ (human); compound 10.0 µM) of the same molecule?
Its residual activity is 95%.

And the residual activity (CSNK2A1 (human); compound 10.0 µM)?
The residual activity was 63%.

What about the residual activity (HIPK2 (human); compound 10.0 µM) of the same molecule?
The residual activity was 61%.

What about the residual activity (HIPK2 (human); compound 100.0 µM) of the same molecule?
The residual activity was 7%.

What about the residual activity (IKBKB (human); compound 10.0 µM) of the same molecule?
Its residual activity is 56%.

What about the residual activity (MAPK13 (human); compound 10.0 µM) of the same molecule?
The residual activity was 88%.

And the residual activity (MAPK13 (human); compound 100.0 µM)?
The residual activity was 46%.

What about the residual activity (MAPKAPK3 (human); compound 10.0 µM) of the same molecule?
Its residual activity is 23%.

And the residual activity (MAPKAPK3 (human); compound 100.0 µM)?
The residual activity was 5%.

And the residual activity (LCK (mouse); compound 10.0 µM)?
The residual activity was 94%.

What about the residual activity (IKBKE (human); compound 10.0 µM) of the same molecule?
Its residual activity is 67%.

And the residual activity (IKBKE (human); compound 100.0 µM)?
Its residual activity is 4%.

What about the residual activity (MAPK12 (human); compound 10.0 µM) of the same molecule?
Its residual activity is 15%.

What about the residual activity (MAPK12 (human); compound 100.0 µM) of the same molecule?
Its residual activity is 9%.

What about the residual activity (AURKA (human); compound 10.0 µM) of the same molecule?
The residual activity was 54%.

What about the residual activity (AURKA (human); compound 100.0 µM) of the same molecule?
Its residual activity is 2%.

And the residual activity (CAMKK2 (human); compound 10.0 µM)?
Its residual activity is 62%.

What about the residual activity (MARK3 (human); compound 10.0 µM) of the same molecule?
The residual activity was 84%.

And the residual activity (MARK2 (human); compound 10.0 µM)?
Its residual activity is 48%.

What about the residual activity (MARK2 (human); compound 100.0 µM) of the same molecule?
The residual activity was 71%.

What about the residual activity (EPHB4 (human); compound 10.0 µM) of the same molecule?
Its residual activity is 97%.

What about the residual activity (PIM2 (human); compound 10.0 µM) of the same molecule?
Its residual activity is 63%.

What about the residual activity (NEK6 (human); compound 10.0 µM) of the same molecule?
Its residual activity is 73%.

What about the residual activity (CHEK1 (human); compound 10.0 µM) of the same molecule?
The residual activity was 90%.

And the residual activity (MAPK3 (human); compound 10.0 µM)?
Its residual activity is 66%.

What about the residual activity (MAPK3 (human); compound 100.0 µM) of the same molecule?
The residual activity was 21%.

What about the residual activity (FLT1 (human); compound 10.0 µM) of the same molecule?
The residual activity was 45%.

And the residual activity (FLT1 (human); compound 100.0 µM)?
Its residual activity is 6%.

And the residual activity (MYLK (human); compound 10.0 µM)?
The residual activity was 68%.

And the residual activity ([1]; compound 10.0 µM)?
Its residual activity is 64%.

And the residual activity (GSK3B (human); compound 10.0 µM)?
Its residual activity is 48%.

And the residual activity (GSK3B (human); compound 100.0 µM)?
Its residual activity is 19%.

And the residual activity (EPHB1 (human); compound 10.0 µM)?
Its residual activity is 93%.

What about the residual activity (MAPK9 (human); compound 10.0 µM) of the same molecule?
Its residual activity is 90%.

And the residual activity (MAPK9 (human); compound 100.0 µM)?
Its residual activity is 64%.

And the residual activity (PRKCA (human); compound 10.0 µM)?
Its residual activity is 67%.

What about the residual activity (STK3 (human); compound 10.0 µM) of the same molecule?
The residual activity was 76%.

And the residual activity (GCK (human); compound 10.0 µM)?
Its residual activity is 63%.

What about the residual activity (MAPKAPK2 (human); compound 10.0 µM) of the same molecule?
Its residual activity is 92%.

And the residual activity (MAPKAPK2 (human); compound 100.0 µM)?
The residual activity was 5%.

What about the residual activity (RPS6KA1 KD1 KD2 (human); compound 10.0 µM) of the same molecule?
The residual activity was 105%.

And the residual activity (EEF2K (human); compound 10.0 µM)?
The residual activity was 77%.

What about the residual activity (EPHA4 (human); compound 10.0 µM) of the same molecule?
The residual activity was 106%.

And the residual activity ([2]; compound 10.0 µM)?
Its residual activity is 96%.
